Data: patent US20150202219A1, “NEUROPROTECTION FROM BRAIN ANOXIA AND REPERFUSION INJURY DURING STROKE AND COMPOSITIONS OF PKG PATHWAY ACTIVATORS AND METHOD OF USE THEREOF” (Florida Atlantic University, priority 2010, published 2015)

Experiments:
[1] = system: adult Drosophila melanogaster; assay: Time to anoxic coma onset (locomotion failure) during acute hypoxia after volatilized drug treatment; assay type: in vivo; details: adult sitter flies; single agent volatilized from 10 uL DMSO for 1 hr; 1 mM KT5823, 1 mM Cantharidin, 200 mM DCA, 10 mM 8-Bromo cGMP, 10 mM T-0156; argon displacement; Dunn's p<0.05
Procedure: Using both genetics and pharmacology, the roles and order of function of additional cGMP-dependent signaling molecules in modulating acute low-oxygen sensitivity of locomotory failure were examined. To do this, we imposed acute hypoxia (<0.2% O2 within 5 min) by displacing environmental oxygen with the inert gas argon and then measured time to failure of locomotion (anoxic coma), which can be observed in less than 2% atmospheric oxygen (Haddad, 2000). We also used a novel but reliable method of pharmacological volatilization as a means to manipulate, in vivo, the activity of target enzymes and molecules such as PKG. Flies were frozen immediately after each trial, and heads were dissected and examined for PKG activity, as an indicator for activity levels in the brain (Belay et al., 2007; Kaun et al., 2007b). Lastly, using adult flies we tested what has been previously shown in embryos and larva (Wingrove and O'Farrell, 1999), the effect of prolonged anoxia (6 hours) on animal survival, after a 24 hour recovery.
Ten flies (separated into males or females) from each of the three strains (rover [for^R], sitter [for^s] and for^s2) were selected and placed in three separate vials with food at least 24 hours before each experiment. At the time of the experiment, flies were emptied into 10 mL empty test vials covered with permeable sponge caps of equivalent thickness, allowing for consistent gas exchange. These test vials were then placed into a 600 mL beaker which was covered with parafilm, creating a closed chamber with an escape hole in the parafilm (1 cm diameter). The purpose of this hole is to allow the lighter normal air (compared to argon which is heavier) to escape from the top of the beaker. The parafilm top was punctured with a needle connected to a gas tank (by a plastic hose), through which the inert gas argon was expelled. Preliminary work was done with pure nitrogen, where no significant differences between the uses of the two gases were observed (data not shown).
The needle tip was fastened to the bottom of the beaker and inserted into a larger sponge of similar texture to the vial sponge caps to ensure that gas expelled from the needle was dispersed equally throughout the beaker. […]
The experiment required exposing the test vials with 10 flies in a vial within the container to pure argon gas expelled from the tank at a flow rate of 600 cc/min±5%. Time of behavioral failure was recorded by observing the fly undergo a seizure, which was quickly followed by an anoxic coma. […] The program recorded these times of failure for each individual fly within the vials and then computed an average failure time for each vial (each vial has 10 flies but gives an average value for N=1). […]

PKG = PKG enzyme activity assay on heads of treated flies; assay type: biochemical, Drosophila melanogaster; details: heads of animals from FIG. 4a experiments; N=6 for each treatment; SNK
Procedure: PKG enzyme activity assays were conducted according to the procedure outlined in Kaun et al. (2007)(Kaun et al., 2007b). Adult Drosophila were decapitated and the heads were homogenized in 25 mM 1-1 Tris (pH 7.4), 1 mM 1-1 EDTA, 2 mM 1-1 EGTA, 5 mM 1-1 β-mercaptoethanol, 0.05% Triton X-100 and protease inhibitor solution (Roche Diagnostics). Following microcentrifugation for 5 min, the supernatant was removed and those supernatants containing equal amounts of total protein were examined for PKG enzyme activity. The reaction mixture contained the following substances: 40 mM 1-1 Tris-HCl (pH 7.4), 20 mM 1-1 magnesium acetate, 0.2 mM 1-1 [γ^32P]ATP (500-1000 c.p.m. pmol-1), 113 mg ml-1 heptapeptide (RKRSRAE), 3 mM 1-1 cGMP and a highly specific inhibitor of cAMP-dependent protein kinase. The next step of the procedure involved incubating the reaction mixtures at a temperature of 30° C. for 10 min, followed by ending the reaction by spotting 70 μl of the reaction mixture onto Whatman P-81 filters. To remove any unreacted [γ^32P]ATP, these spots were then soaked with 75 mM 1-1 H3PO4 for 5 min and washed three times with 75 mM 1-1 H3PO4. Before quantifying enzyme activity, filters were rinsed with 100% ethanol and air dried. To calculate PKG enzyme activity, counts were taken in a Wallac 1409 Liquid Scintillation Counter using universal scintillation cocktail (ICN). PKG activity was presented in the figures as pmol of ^32P incorporated into the substrate min-1 mg-1 protein.

NT-3 = details: cited from earlier work
protein phosphatase = details: cited from earlier work
[2] = target: T1, phosphodiesterase-5 (PDE-5) (Mus musculus, UniProt Q8CG03); details: mice; 1.4-mg/kg intraperitoneal injections daily for 8 days; cited from earlier work
T1 construct: Sildenafil (Viagra) was administered to mice, 1.4-mg/kg intraperitoneal injections daily for 8 days; host or cells: mice in vivo (brain neurons under hypoxia)

Row | Compound | anoxic coma onset sensitivity (time to failure) vs sham control [1] | PKG enzyme activity levels in heads compared to sham control (PKG) | neurotrophin (NT-3) activity (NT-3) | nerve cell death (protein phosphatase) | neuron apoptosis during hypoxia [2]
1 | Nc1nc2c(nc(Br)n2[C@@H]2O[C@@H]3COP(=O)(O)O[C@H]3[C@H]2O)c(=O)[nH]1 [8-Bromo cGMP, 8-Bromo-cGMP] | significant sensitivity to anoxic coma | significant effects compared to that of the sham control |  |  | 
2 | C[C@@]12C(=O)OC(=O)[C@]1(C)[C@H]1CC[C@@H]2O1 [Cantharidin] | significant resilience to anoxic coma | no significant effects on PKG enzyme activity levels |  |  | 
3 | COC(=O)[C@@]1(OC)C[C@H]2O[C@]1(C)n1c3ccccc3c3c4c(c5c6ccccc6n2c5c31)C(=O)N(C)C4 [KT5823] | significant resilience to anoxic coma | significant effects compared to that of the sham control | potentiation of NT-3 |  | 
4 | C=C1[C@@H](O)[C@@H]2O[C@]3(CC[C@H](/C=C/[C@@H](C)[C@@H]4CC(C)=C[C@@]5(O[C@H](C[C@@](C)(O)C(=O)O)CC[C@H]5O)O4)O3)CC[C@H]2O[C@@H]1[C@@H](O)C[C@H](C)[C@H]1O[C@@]2(CCCCO2)CC[C@H]1C [Okadaic acid] |  |  |  | increase nerve cell death | 
5 | CCCc1nn(C)c2c(=O)[nH]c(-c3cc(S(=O)(=O)N4CCN(C)CC4)ccc3OCC)nc12 [Sildenafil, sildenafil] |  |  |  |  | reduces neuron apoptosis
6 | COC(=O)c1c(-c2cc(OC)c(OC)c(OC)c2)c2ccnc(OCc3ncccn3)c2c(=O)n1Cc1ccnc(C)c1 [T-0156] | significant sensitivity to anoxic coma | significant effects compared to that of the sham control |  |  | 
